Assay results from US20090042863A1, “Therapeutic Agent for Diabetes” (Takeda Pharmaceutical Company Limited, priority 2005, published 2009).
Structures can show the parent of a compound that is named as a salt.

What was measured:
Type in all cases: in vivo
db/db mouse [1] = assay: Pancreatic insulin content in db/db mice, Experimental Example 2 (voglibose, compound A); details: male, 6-week-old, powder diet with voglibose 0.001 (w/w)% and/or compound A 0.03 (w/w)% free form for 27 consecutive days, pancreas isolated at day 29, mean ± SD, n=6
Protocol: (§1) First, the mouse pancreas was homogenated in its 10 times weight of 74% ethanol (containing 0.15 mM hydrochloric acid). The obtained homogenate solution was left standing overnight under the shading conditions at 4° C., and centrifuged at 15000 rpm for 5 min. The obtained supernatant was appropriately diluted with PBS(−) (phosphate-buffered saline) containing 0.1% BSA (bovine serum albumin). The insulin content of the diluted solution was measured by radioimmunoassay (trade name: RAT INSULIN RIA KIT, manufactured by RINCO Research, U.S.A.), and the insulin content per pancreatic tissue weight was calculated. […]
In the above-mentioned Groups A-D, pancreas was isolated from the mice at day 29 from the start of the powder feed administration, and the pancreatic insulin content was measured.
(§2) The insulin content per pancreatic tissue weight was calculated in the same manner as in Experimental Example 1. […]

db/db mouse [2] = assay: Pancreatic insulin content in db/db mice, Experimental Example 3 (pioglitazone, compound B); details: male, 6-week-old, powder diet with pioglitazone hydrochloride 0.0075 (w/w)% as pioglitazone and/or compound B 0.03 (w/w)% free form for 26 consecutive days, pancreas isolated at day 28, mean ± SD, n=7
Protocol: as §1
(§3) In the above-mentioned Groups A-D, pancreas was isolated from the mice at day 28 from the start of the powder feed administration, and the pancreatic insulin content was measured.
as §2

db/db mouse [3] = assay: Pancreatic insulin content in db/db mice, Experimental Example 4 (pioglitazone, compound C); details: male, 6-week-old, powder diet with pioglitazone hydrochloride 0.0075 (w/w)% as pioglitazone and/or compound C 0.1 (w/w)% free form for 26 consecutive days, pancreas isolated at day 28, mean ± SD, n=7
Protocol: as §1, §3, §2

SMILES | Pancreatic insulin content (db/db mouse [1]) | Pancreatic insulin content (db/db mouse [2]) | Pancreatic insulin content (db/db mouse [3])
Cn1c(=O)cc(N2CCC[C@@H](N)C2)n(Cc2ccccc2C#N)c1=O.O=C(O)c1ccccc1 [compound A, 2-[[6-[(3R)-3-amino-1-piperidinyl]-3,4-dihydro-3-methyl-2,4-dioxo-1(2H)-pyrimidinyl]methyl]benzonitrile benzoate] | 92.0 ± 37.0 ng/mg tissue |  | 
Cn1c(=O)cc(N2CCC[C@@H](N)C2)n(Cc2cc(F)ccc2C#N)c1=O.O=C(O)CCC(=O)O [compound B, 2-[[6-[(3R)-3-amino-1-piperidinyl]-3,4-dihydro-3-methyl-2,4-dioxo-1(2H)-pyrimidinyl]methyl]-4-fluorobenzonitrile succinate] |  | 58.1 ± 17.0 ng/mg tissue | 
N#Cc1ccccc1Cn1c(N2CCC[C@@H](N)C2)ncc(F)c1=O.O=C(O)C(O)C(O)C(=O)O [compound C, 2-[2-(3-(R)-aminopiperidin-1-yl)-5-fluoro-6-oxo-6H-pyrimidin-1-ylmethyl]benzonitrile tartrate] |  |  | 57.2 ± 17.8 ng/mg tissue
CCc1ccc(CCOc2ccc(CC3SC(=O)NC3=O)cc2)nc1 (stereo not drawn) [pioglitazone, pioglitazone hydrochloride] |  | 74.8 ± 21.5 ng/mg tissue | 74.8 ± 21.5 ng/mg tissue
OCC(CO)N[C@H]1C[C@](O)(CO)[C@@H](O)[C@H](O)[C@H]1O [voglibose] | 198.1 ± 169.8 ng/mg tissue |  | 
